For the first experiment, the target named is T1, Mcl-1/Bim interaction, recombinant human Mcl-1 (171-327) (Homo sapiens, UniProt Q07820).
T1 construct: made in house
T1 sequence (Q07820 171-327): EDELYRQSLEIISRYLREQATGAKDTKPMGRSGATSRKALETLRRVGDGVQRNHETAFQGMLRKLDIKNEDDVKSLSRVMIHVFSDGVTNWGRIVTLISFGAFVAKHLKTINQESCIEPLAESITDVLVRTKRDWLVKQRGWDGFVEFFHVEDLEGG
The experiment is described as follows: Cell free Mcl-1: Bim Affinity Assay (Mcl-1 HTRF). The format is binding. Particulars: TR-FRET, 0.1 nM Mcl-1 (171-327), 0.05 nM biotin-Bim (51-76). Summed up:
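Read-out is time-resolved FRET after overnight incubation, using a biotin-labelled peptide from human Bim (51-76) as the binding partner; IC50 was derived from competition curves.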
With `O=C1NS(=O)(=O)[C@H]2CC[C@@H]2CCC[C@H](O)[C@@H]2CC[C@H]2CN2C[C@@]3(CCCc4cc(Cl)ccc43)COc3ccc1cc32` [Example 92, (1S,3′R,6′R,7′S,11′S,14′S)-6-chloro-7′-hydroxy-3,4-dihydro-2H,17′H-spiro[naphthalene-1,24′-[22]oxa[15]thia[1,16]diazapentacyclo[16.7.2.0^3,6.0^11,14.0^21,26]heptacosa[18,20,26]trien]-17′-one 15′,15′-dioxide], the IC50 came to 0.781 nM.

Regarding `C=C1CC/C=C/[C@H](O)[C@@H]2CC[C@H]2CN2C[C@@]3(CCCc4cc(Cl)ccc43)COc3ccc(cc32)C(=O)NS1(=O)=O` (single isomer, unassigned) [Example 441], the IC50 turned out to be 0.632 nM.

On to `C[C@@H]1CC/C=C/[C@H](OCC(=O)N(C)C)[C@@H]2CC[C@H]2CN2C[C@@]3(CCCc4cc(Cl)ccc43)COc3ccc(cc32)C(=O)NS1(=O)=O` [Example 420, 2-(((1S,3′R,6′R,7′S,8′E,12′R)-6-chloro-12′-methyl-13′,13′-dioxido-15′-oxo-3,4-dihydro-2H-spiro[naphthalene-1,22′-[20]oxa[13]thia[1,14]diazatetracyclo[14.7.2.0^3,6.0^19,24]pentacosa [8,16,18,24]tetraen]-7′-yl)oxy)-N,N-dimethylacetamide], for which the IC50 was 0.349 nM.

As to `O=C1NS(=O)(=O)C[C@@H](CO)C/C=C/[C@@H](O)[C@@H]2CC[C@H]2CN2C[C@@]3(CCCc4cc(Cl)ccc43)COc3ccc1cc32` (single isomer, unassigned) [Example 1089], the IC50 worked out at 0.874 nM.

Turning to `CO[C@@H]1/C=C/CCS(=O)(=O)NC(=O)c2ccc3c(c2)N(C[C@@H]2CC[C@H]21)C[C@@]1(CCCc2cc(Cl)ccc21)CO3` [Example 225, (1S,3′R,6′R,7′R,8′E)-6-chloro-7′-methoxy-3,4-dihydro-2H,14′H-spiro[naphthalene-1,21′-[19]oxa[12]thia[1,13]diazatetracyclo[13.7.2.0^3,6.0^18,23]tetracosa [8,15,17,23]tetraen]-14′-one 12′,12′-dioxide], the IC50 was found to be 23.1 nM.

For the compound `CC[C@@H]1CC/C=C/[C@H](OCC(=O)N(C)C)[C@@H]2CC[C@H]2CN2C[C@@]3(CCCc4cc(Cl)ccc43)COc3ccc(cc32)C(=O)NS1(=O)=O` [Example 973], the IC50 was found to be 0.378 nM.

Regarding `O=C1NS(=O)(=O)[C@H]2C[C@@H](O)C[C@@H]2C/C=C/[C@H](O)[C@@H]2CC[C@H]2CN2C[C@@]3(CCCc4cc(Cl)ccc43)COc3ccc1cc32` (single isomer, unassigned) [Example 336], the IC50 is 1.51 nM.

As for `CCN1CCCC[C@H](O)[C@@H]2CC[C@H]2CN2C[C@@]3(CCCc4cc(Cl)ccc43)COc3ccc(cc32)C(=O)NS1(=O)=O` [Example 86, (1S,3′R,6′R,7′S)-6-chloro-12′-ethyl-7′-hydroxy-3,4-dihydro-2H,15′H-spiro[naphthalene-1,22′-[20]oxa[13]thia[1,12,14]triazatetracyclo[14.7.2.0^3,6.0^19,24]pentacosa[16,18,24]trien]-15′-one 13′,13′-dioxide], the IC50 stood at 4.04 nM.

Turning to `CN(C)C(=O)[C@@H]1CC/C=C/[C@H](O)[C@@H]2CC[C@H]2CN2C[C@@]3(CCCc4cc(Cl)ccc43)COc3ccc(cc32)C(=O)NS1(=O)=O` (single isomer, unassigned) [Example 436], the IC50 was determined as 0.243 nM.

For the compound `CC[C@@H]1CC/C=C/[C@H](OCCO[C@H]2CCCCO2)[C@@H]2CC[C@H]2CN2C[C@@]3(CCCc4cc(Cl)ccc43)COc3ccc(cc32)C(=O)NS1(=O)=O` (mixture of isomers) [Example 969], the IC50 came to 2.91 nM.

As to `CC[C@@H]1CC[C@@H](O)/C=C/[C@@H]2CC[C@H]2CN2C[C@@]3(CCCc4cc(Cl)ccc43)COc3ccc(cc32)C(=O)NS1(=O)=O` (single isomer, unassigned) [Example 198], the IC50 came to 3.24 nM.

For the compound `CC[C@@H]1CC/C=C/[C@H](OCC(=O)NC)[C@@H]2CC[C@H]2CN2C[C@@]3(CCCc4cc(Cl)ccc43)COc3ccc(cc32)C(=O)NS1(=O)=O` [Example 974, 2-(((1S,3′R,6′R,7′S,8′E,12′R)-6-chloro-12′-ethyl-13′,13′-dioxido-15′-oxo-3,4-dihydro-2H-spiro[naphthalene-1,22′-[20]oxa[13]thia[1,14]diazatetracyclo[14.7.2.0^3,6.0^19,24]pentacosa [8,16,18,24]tetraen]-7′-yl)oxy)-N-methylacetamide], the IC50 worked out at 0.716 nM.

Take `CO[C@@H]1CCCCS(=O)(=O)NC(=O)c2ccc3c(c2)N(C[C@@H]2CC[C@H]21)C[C@@]1(CCCc2cc(Cl)ccc21)CO3` [Example 226]: the IC50 came out at 25.6 nM.

With `CC[C@@H]1CC/C=C\[C@H](OCC(=O)NC)[C@@H]2CC[C@H]2CN2C[C@@]3(CCCc4cc(Cl)ccc43)COc3ccc(cc32)C(=O)NS1(=O)=O` [Example 964, 2-(((1S,3′R,6′R,7′S,8′Z,12′R)-6-chloro-12′-ethyl-13′,13′-dioxido-15′-oxo-3,4-dihydro-2H-spiro[naphthalene-1,22′-[20]oxa[13]thia[1,14]diazatetracyclo[14.7.2.0^3,6.0^19,24]pentacosa [8,16,18,24]tetraen]-7′-yl)oxy)-N-methylacetamide], the IC50 came to 1.01 nM.

With `CO[C@@H]1CCCCCS(=O)(=O)NC(=O)c2ccc3c(c2)N(C[C@@H]2CC[C@H]21)C[C@@]1(CCCc2cc(Cl)ccc21)CO3` [Example 1094, (1S,3′R,6′R,7′R)-6-chloro-7′-methoxy-3,4-dihydro-2H,15′H-spiro [naphthalene-1,22′-[20]oxa[13]thia[1,14]diazatetracyclo[14.7.2.0^3,6.0^19,24]pentacosa [16,18,24]trien]-15′-one 13′,13′-dioxide], the IC50 is 17.8 nM.

Take `CN(C)C(=O)[C@H]1CC/C=C/[C@H](O)[C@@H]2CC[C@H]2CN2C[C@@]3(CCCc4cc(Cl)ccc43)COc3ccc(cc32)C(=O)NS1(=O)=O` (single isomer, unassigned) [Example 437]: the IC50 turned out to be 3.77 nM.

Staying with this experiment, now noted: cell free Mcl-1:Bim TR-FRET, recombinant human Mcl-1 (171-327).
Take `COc1ccc(C)c(NC(=O)C[C@@H]2CC/C=C/[C@H](O)[C@@H]3CC[C@H]3CN3C[C@@]4(CCCc5cc(Cl)ccc54)COc4ccc(cc43)C(=O)NS2(=O)=O)c1` (single isomer, unassigned) [Example 629]: the IC50 stood at 2.3 nM.

For the compound `CC[C@H]1CC/C=C/[C@H](O)[C@@H]2CC[C@H]2CN2C[C@@]3(CCc4cc(Cl)ccc43)COc3ccc(cc32)C(=O)NS1(=O)=O` (single isomer, unassigned) [Example 700], the IC50 is 27.7 nM.

For the compound `O=C1NS(=O)(=O)[C@H](CCOc2ccc(Br)cc2)CC/C=C/[C@H](O)[C@@H]2CC[C@H]2CN2C[C@@]3(CCCc4cc(Cl)ccc43)COc3ccc1cc32` (single isomer, unassigned) [Example 625], the IC50 is 38.3 nM.

On to `O=C1NS(=O)(=O)CC/C=C/[C@@H]2CC[C@H]2CN2C[C@@]3(CCCc4cc(Cl)ccc43)COc3ccc1cc32` [Example 825, (1S,3′R,6′S, 7′E)-6-chloro-3,4-dihydro-2H,13′H-spiro[naphthalene-1,20′-[18]oxa[11]thia[1,12]diazatetracyclo[12.7.2.0^3,6.0^17,22]tricosa[7,14,16,22]tetraen]-13′-one 11′,11′-dioxide], for which the IC50 was found to be 26.4 nM.

In the case of `O=C1NS(=O)(=O)CCOCCC[C@@H]2CC[C@H]2CN2C[C@@]3(CCc4cc(Cl)ccc43)COc3ccc1cc32` (single isomer, unassigned) [Example 816], the IC50 is 4.72 nM.

`O=C1NS(=O)(=O)C/C=C/[C@H](O)CC[C@@H]2CC[C@H]2CN2C[C@@]3(CCCc4cc(Cl)ccc43)COc3ccc1cc32` (single isomer, unassigned) [Example 500]: the IC50 came out at 7.08 nM.

As to `O=C1NS(=O)(=O)CCCCC[C@@H](NC(=O)C2CC2)[C@@H]2CC[C@H]2CN2C[C@@]3(CCCc4cc(Cl)ccc43)COc3ccc1cc32` (single isomer, unassigned) [Example 937], the IC50 was determined as 4.75 nM.

For `CC(C)C(=O)N[C@@H]1CCCCCS(=O)(=O)NC(=O)c2ccc3c(c2)N(C[C@@H]2CC[C@H]21)C[C@@]1(CCCc2cc(Cl)ccc21)CO3` (single isomer, unassigned) [Example 936], the IC50 was 4.74 nM.

Regarding `O=C(C[C@@H]1CC/C=C/[C@H](O)[C@@H]2CC[C@H]2CN2C[C@@]3(CCCc4cc(Cl)ccc43)COc3ccc(cc32)C(=O)NS1(=O)=O)Nc1cccc(Cl)c1` (single isomer, unassigned) [Example 627], the IC50 came to 10.1 nM.

As to `O=C1NS(=O)(=O)CC/C=C\C[C@@H](O)[C@@H]2CC[C@H]2CN2C[C@@]3(CCCc4cc(Cl)ccc43)COc3ccc1cc32` (single isomer, unassigned) [Example 845], the IC50 amounted to 4.32 nM.

In the case of `O=C1NS(=O)(=O)C[C@@H]2C[C@@H]2CC[C@H](O)[C@@H]2CC[C@H]2CN2C[C@@]3(CCCc4cc(Cl)ccc43)COc3ccc1cc32.O=C1NS(=O)(=O)C[C@H]2C[C@H]2CC[C@H](O)[C@@H]2CC[C@H]2CN2C[C@@]3(CCCc4cc(Cl)ccc43)COc3ccc1cc32` (mixture of isomers) [Example 787], the IC50 amounted to 21.4 nM.

Take `COC[C@H]1C/C=C/[C@H](O)[C@@H]2CC[C@H]2CN2C[C@@]3(CCCc4cc(Cl)ccc43)COc3ccc(cc32)C(=O)NS1(=O)=O` (single isomer, unassigned) [Example 772]: the IC50 is 5.2 nM.

As to `O=C1NS(=O)(=O)CCCCC[C@H](NCCO)[C@@H]2CC[C@H]2CN2C[C@@]3(CCCc4cc(Cl)ccc43)COc3ccc1cc32` (single isomer, unassigned) [Example 929], the IC50 is 40 nM.

Turning to `C=C1[C@@H](O)[C@H](O)CC[C@@H](CC)S(=O)(=O)NC(=O)c2ccc3c(c2)N(C[C@@H]2CC[C@@H]12)C[C@@]1(CCCc2cc(Cl)ccc21)CO3` (single isomer, unassigned) [Example 877], the IC50 came to 26.2 nM.

These data come from patent publication US12091425B2 (AMGEN INC., priority 2016, dated 2024).
